Data from PubChem BioAssay (NCI).
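Briefly, cells in 96-well plates were exposed to five compound concentrations for 48 h, and endpoints were estimated by linear interpolation. TGI denotes the concentration required for complete inhibition of growth.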

Key:
Experiment in all cases: NCI-60 cell line screen, 48 h
[1] = test system: A498 renal
[2] = test system: A549 NSCLC
[3] = test system: CCRF-CEM leukemia
[4] = test system: EKVX NSCLC
[5] = test system: HCC-2998 colon
[6] = test system: HCT-15 colon
[7] = test system: HT29 colon
[8] = test system: MDA-MB-231 breast
[9] = test system: MDA-MB-435
[10] = test system: MDA-N
[11] = test system: MOLT-4 leukemia
[12] = test system: NCI-H460 lung
[13] = test system: NCI-H522 lung
[14] = test system: NCI/ADR-RES ovarian
[15] = test system: OVCAR-4 ovarian
[16] = test system: OVCAR-5 ovarian
[17] = test system: RPMI-8226 leukemia
[18] = test system: SK-MEL-28 melanoma
[19] = test system: SN12C renal
[20] = test system: UACC-257 melanoma

SMILES: O=C1c2ccccc2CC12Cc1ccccc1C2
- TGI [1]: > 100 µM
- TGI [2]: > 100 µM
- TGI [3]: > 100 µM
- TGI [4]: 78.3 µM
- TGI [5]: 70.3 µM
- TGI [6]: > 100 µM
- TGI [7]: 70.5 µM
- TGI [8]: > 100 µM
- TGI [9]: > 100 µM
- TGI [10]: > 100 µM
- TGI [11]: > 100 µM
- TGI [12]: > 100 µM
- TGI [13]: > 100 µM
- TGI [14]: 89.1 µM
- TGI [15]: > 100 µM
- TGI [16]: > 100 µM
- TGI [17]: > 100 µM
- TGI [18]: > 100 µM
- TGI [19]: > 100 µM
- TGI [20]: 54.2 µM

SMILES: N#Cc1c(Cl)nc2ccccc2c1N=[N+]=[N-]
- TGI [1]: 36.2 µM
- TGI [2]: 35.3 µM
- TGI [3]: 4.24 µM
- TGI [4]: 5.53 µM
- TGI [5]: 14.4 µM
- TGI [6]: 4.3 µM
- TGI [7]: 3.26 µM
- TGI [8]: 3.62 µM
- TGI [9]: 17.7 µM
- TGI [10]: 26.8 µM
- TGI [11]: 3.17 µM
- TGI [12]: 21.4 µM
- TGI [13]: 4.62 µM
- TGI [14]: 37.3 µM
- TGI [15]: 4.24 µM
- TGI [16]: 15.2 µM
- TGI [17]: 7.89 µM
- TGI [18]: 9.11 µM
- TGI [19]: 10.7 µM
- TGI [20]: 27.8 µM

SMILES: N#Cc1c(O)c(N=Nc2ccc(Cl)cc2)c(=O)n2c1[nH]c1ccccc12
- TGI [1]: > 100 µM
- TGI [2]: > 100 µM
- TGI [3]: > 100 µM
- TGI [4]: > 100 µM
- TGI [5]: > 100 µM
- TGI [6]: > 100 µM
- TGI [7]: > 100 µM
- TGI [8]: > 100 µM
- TGI [9]: > 100 µM
- TGI [10]: > 100 µM
- TGI [11]: > 100 µM
- TGI [12]: > 100 µM
- TGI [13]: > 100 µM
- TGI [14]: > 100 µM
- TGI [15]: > 100 µM
- TGI [16]: > 100 µM
- TGI [17]: 85.5 µM
- TGI [18]: > 100 µM
- TGI [19]: > 100 µM
- TGI [20]: > 100 µM

SMILES: COc1ccc2c(c1)CCCN2S(=O)(=O)c1ccccc1[N+](=O)[O-]
- TGI [1]: > 78 µM
- TGI [2]: > 100 µM
- TGI [3]: 80.9 µM
- TGI [4]: > 91.9 µM
- TGI [5]: 84.5 µM
- TGI [6]: > 97.4 µM
- TGI [7]: 77.2 µM
- TGI [8]: > 100 µM
- TGI [9]: 22 µM
- TGI [10]: 26.7 µM
- TGI [11]: 67.3 µM
- TGI [12]: > 87.9 µM
- TGI [13]: 66.5 µM
- TGI [14]: > 85.6 µM
- TGI [15]: > 100 µM
- TGI [16]: > 100 µM
- TGI [17]: 71.3 µM
- TGI [18]: > 100 µM
- TGI [19]: > 100 µM
- TGI [20]: > 100 µM

SMILES: CN1C=Cc2nccc3cc4c(c1c23)OCO4
- TGI [1]: 20.5 µM
- TGI [2]: > 55.4 µM
- TGI [3]: > 100 µM
- TGI [4]: 13.8 µM
- TGI [5]: 30.4 µM
- TGI [6]: > 66.3 µM
- TGI [7]: 27.5 µM
- TGI [8]: 29 µM
- TGI [9]: 12.1 µM
- TGI [10]: 8.62 µM
- TGI [11]: > 93 µM
- TGI [12]: > 33.1 µM
- TGI [13]: 8.2 µM
- TGI [14]: 52.6 µM
- TGI [15]: 47.5 µM
- TGI [16]: 66.3 µM
- TGI [17]: 30.7 µM
- TGI [18]: 39.2 µM
- TGI [19]: 30.2 µM
- TGI [20]: 16.9 µM

SMILES: COC(=O)[C@@H](Cc1ccccc1)N1O[C@]12CCCC[C@@H]2NC(=O)OC(C)(C)C (stereo not given in full)
- TGI [1]: > 100 µM
- TGI [2]: > 100 µM
- TGI [3]: 35.9 µM
- TGI [4]: 82.3 µM
- TGI [5]: > 100 µM
- TGI [6]: 33.5 µM
- TGI [7]: 32.2 µM
- TGI [8]: 42.4 µM
- TGI [9]: 54.5 µM
- TGI [10]: 39.1 µM
- TGI [11]: > 100 µM
- TGI [12]: 90.6 µM
- TGI [13]: 30.4 µM
- TGI [14]: 52.4 µM
- TGI [15]: > 100 µM
- TGI [16]: 71.7 µM
- TGI [17]: > 100 µM
- TGI [18]: 60.7 µM
- TGI [19]: > 100 µM
- TGI [20]: > 100 µM

SMILES: CCOC(=O)c1nc2ccccc2nc1Oc1cc(OC)c(OC)c(OC)c1
- TGI [1]: > 100 µM
- TGI [2]: > 100 µM
- TGI [3]: > 100 µM
- TGI [4]: > 100 µM
- TGI [5]: > 100 µM
- TGI [6]: > 100 µM
- TGI [7]: > 100 µM
- TGI [8]: > 100 µM
- TGI [9]: > 100 µM
- TGI [10]: > 100 µM
- TGI [11]: > 100 µM
- TGI [12]: > 100 µM
- TGI [13]: > 100 µM
- TGI [14]: > 100 µM
- TGI [15]: > 100 µM
- TGI [16]: > 100 µM
- TGI [17]: > 100 µM
- TGI [18]: > 100 µM
- TGI [19]: > 100 µM
- TGI [20]: > 100 µM

SMILES: CC1=CC(C)C(C)N(CCNS(=O)(=O)c2ccc(C)cc2)c2ccccc21 (stereo not given)
- TGI [1]: 19.2 µM
- TGI [2]: > 31.6 µM
- TGI [3]: 25.6 µM
- TGI [4]: > 31.6 µM
- TGI [5]: 30.2 µM
- TGI [6]: > 31.6 µM
- TGI [7]: 17.4 µM
- TGI [8]: 24.2 µM
- TGI [9]: 18.9 µM
- TGI [10]: 18.8 µM
- TGI [11]: 23.5 µM
- TGI [12]: 19.2 µM
- TGI [13]: 61.1 µM
- TGI [14]: 29.5 µM
- TGI [15]: 22.3 µM
- TGI [16]: 31.1 µM
- TGI [17]: 22.3 µM
- TGI [18]: 17.9 µM
- TGI [19]: 17.1 µM
- TGI [20]: 34.2 µM

SMILES: CCCCCCOc1ccc(C(=O)N(C)O)cc1
- TGI [1]: > 100 µM
- TGI [2]: 56.6 µM
- TGI [3]: 23.5 µM
- TGI [4]: > 100 µM
- TGI [5]: 99 µM
- TGI [6]: > 82.9 µM
- TGI [7]: 27.5 µM
- TGI [8]: > 100 µM
- TGI [9]: 98.1 µM
- TGI [10]: > 100 µM
- TGI [11]: 50.4 µM
- TGI [12]: 30 µM
- TGI [13]: 90.6 µM
- TGI [14]: 57.1 µM
- TGI [15]: > 100 µM
- TGI [16]: > 100 µM
- TGI [17]: 46.6 µM
- TGI [18]: > 100 µM
- TGI [19]: > 93.9 µM
- TGI [20]: > 100 µM
